# Results reported in patent US20060171944A1, “N-formyl peptide receptor mediation of platelet chemotaxis toward injured cells and activation of immune response” (priority 2002, published 2006).
# Square brackets hold non-standard residues; d marks the D form. Ends that are not written are not given here. * marks the point of attachment. Nle = CCCC[C@H](N)C(=O)O; For = O=C*
# Experiments:
# [1] = test system: MEG-01 cells; experiment: RT-PCR of FPR and FPRL-1 in MEG-01 cells; type: cell-based, human; conditions: 10^−7 M PMA for 5 days
# Method: To further confirm that platelets express human N-formyl peptide receptors (FPR), RT-PCR of RNA harvested from the megakaryocytic cell line MEG-01 was performed. […] Treatment of MEG-01 cells with phorbol 12-myristate 13-acetate (PMA) induced differentiation with production of platelet-like structures^36. RNA harvested from HL60 cells, a promyelocytic cell line that expresses both FPR and FPRL 1, is shown in lane 1 (RT included), lane 2 (RT excluded), and lane 3 (RNA excluded) (FIG. 2a). […] RT-PCR generated bands were confirmed to encode the FPR or FPRL1 by sequence analysis. FPR protein expression in platelets was shown by immunoblotting with FPR specific antibody.
# Total RNA was isolated using Ultraspec RNA isolation system (Biotecx Laboratories Inc., Houston Tes.), according to the manufacturer's protocol. To confirm purity of the product RNA, absorption ratios at 260/280 nm were determined to be […] for all samples. The samples were adjusted to 200 ng/μl for reverse transcription and PCR according to absorption at 260 nm. Total RNA was reversed-transcribed using Thermoscript RT (GibcoBRL, Gaithersburg, Md.). Conditions for PCR amplification of the resulting first-strand DNA template involved preheating a mixture of Taq DNA polymerase (5 U/ml) (GibcoBRL), primers, cDNA, and PCR components to 95° C. for 5 min before amplification. […]
# [2] = test system: human platelets; experiment: Intracellular free calcium in fura-2 loaded platelets; type: cell-based; conditions: for calcium signal: thrombin-activated as well as non-activated platelets, 1 U thrombin, 10^−6 M peptide
# Method: Washed platelets were activated with either 0 U or 1 U thrombin (Sigma) for 10 min at 37° C. Fura-2 loaded platelets were prepared by incubating the platelets, for 45 min with fura-2 acetoxymethyl ester at 37° C. The dye-loaded platelets were washed and resuspended in calcium-free HBSS standard solution. The cells were then transferred into quartz cuvettes (10^9 cells in 2 ml), which were placed in a model MS-III spectrofluorometer (Photon Technologies, Inc.; South Brunswick, N.J.) and continuously stirred at 37° C. Stimulants were added in a 2 μl volume at indicated time points. The ratios of fluorescence at excitation wavelengths 340 and 380 nm and emission wavelength at 510 nm were calculated using FeliX fluorescence analysis software (Photon Technology Instruments; London, Ontario, Canada). Representative traces from at least six independent experiments are shown.
# [3] = test system: Hep-2 cells; experiment: Induction of apoptosis in Hep-2 cells, scored by H-33342/SYTOX staining; type: cell-based; conditions: 1 μM for 5 hours
# Method: Hep-2-cells were grown in DMEM medium supplemented with 10% FCS. Before each experiment, the cells were washed and the media was replaced with serum-free DMEM. After adaptation to this medium, cells were exposed to repeated freeze/thaw or UV radiation (1000J) in a UV Stratalinker UV oven (Stratagene) to induce necrosis. To induce apoptosis, cells were treated with 1 μM staurosporine (STS) for 5 hours. After the treatments, the cells were placed into a tissue culture incubator overnight. The supernatant was collected and used for experimentation and the cells were stained with a mixture of the membrane permeant dye H-33342 (500 ng/ml) and the membrane impermeant dye SYTOX (500 nM) (Molecular Probes; Eugene, Oreg.). Necrotic (damaged plasma membrane; non-condensed nuclei) and apoptotic (intact plasma membrane; characteristically condensed or fragmented nuclei) cells were scored. Necrotic cells after UV radiation=84%. Apoptotic cells after STS treatment=80%.
# [4] = molecular target: T1, N-formyl peptide receptors on human platelets (Homo sapiens, UniProt P21462); experiment: Flow cytometry of fluorescein-conjugated peptide binding to human platelets; conditions: 10^−7 M peptide; platelets treated with 0, 0.001, 0.1 or 10 U thrombin
# T1 construct: Platelet-rich plasma was prepared from whole blood by differential centrifugation; endogenous in cells
# T1 sequence (P21462 1-350): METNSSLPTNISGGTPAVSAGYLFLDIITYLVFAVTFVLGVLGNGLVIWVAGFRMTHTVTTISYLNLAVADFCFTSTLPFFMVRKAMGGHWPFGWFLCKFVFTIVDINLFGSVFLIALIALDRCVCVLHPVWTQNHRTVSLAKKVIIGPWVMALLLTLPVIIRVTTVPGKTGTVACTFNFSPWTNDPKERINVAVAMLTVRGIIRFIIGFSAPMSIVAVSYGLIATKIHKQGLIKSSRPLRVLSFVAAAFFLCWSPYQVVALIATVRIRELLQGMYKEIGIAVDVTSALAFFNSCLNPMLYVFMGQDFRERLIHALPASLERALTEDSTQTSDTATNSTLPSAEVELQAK
# Method: (§1) To test whether human platelets express N-formyl peptide receptors, the binding of identical fluorescein-conjugated peptides to human platelets was evaluated by flow cytometry, where one contained a formyl group N-formyl-Nle-Leu-Phe-Nle-Tyr-Lys (fNLFNYK-fl) (SEQ ID NO:1), and the other without a formyl group Nle-Leu-Phe-Nle-Tyr-Lys (NLFNYK-fl) (SEQ ID NO:2). […] However, with permeabilization of non-activated platelets, fluorescein staining of granule-like particles was detected within the interior of platelets (FIG. 1d). […] Differential interference contrast (DIC) imaging (FIG. 1g insert) confirmed the presence of platelets.
# Platelet-rich plasma was prepared from whole blood by differential centrifugation at 800×g for 5 min at 22° C. The top two-thirds of the platelet-rich plasma was removed and washed in PBS containing 1% fetal bovine serum. Washed platelets were activated with 0, 0.001, 0.1 or 10 U thrombin (Sigma, St. Louis, Mo.) for 10 min at 37° C. The platelets were then washed and incubated with 10^−7 M fluorescein conjugated N-formyl peptide; fNLFNYK-fl (SEQ ID NO:1; Molecular Probes, Eugene, Oreg.) or 10^−7 M fluorescein conjugated non-N-formylated peptide; NLFNYK-fl (SEQ ID NO:2; New England Peptide, Fitchburg, Mass.) for 30 min at room temperature. […] Samples were analyzed on a Becton Dickinson (Franklin Lakes, N.J.) FASCcalibur/CELLQuest system. […]
# [5] = test system: human platelets; experiment: Platelet chemotaxis by transwell migration (ChemoTx microplate); type: cell-based; conditions: for chemotaxis of thrombin-activated platelets toward peptide: 10^−6 and 10^−7 M peptide, 10 U thrombin, P<0.001
# Method: The chemotactic activity of activated and non-activated platelets in response to different concentrations of fMLF by transwell migration (FIG. 4a) was determined. […] Both thrombin-activated and non-activated platelet migration followed a concentration-response curve that was greatest at 10^−6 M fMLF (27.2±12) in the thrombin-activated platelets and 10^−7 M fMLF (11.5±6.5) in the non-activated platelets (FIG. 4a). […] Next the dependence of platelet chemotaxis on the presence of a Formyl group on the peptide was tested. […] Non-activated platelets behaved similarly. Thus, the presence of a Formylgroup was essential for FPR binding, calcium mobilization and platelet chemotaxis.
# Platelet migration was assessed using a 96-well ChemoTx® microplate (Neuro Probe, Gaithersburg Md.). For all chemotaxis experiments, different concentrations of stimulants were placed in the bottom wells of the microplate and the filter was positioned (2 μm pore size). The cell suspension was seeded onto the top of the filter (30 μl) and the microplates were incubated for 2 hrs at 37° C. For all chemokinesis experiments, different concentrations of stimulants were placed in the bottom wells of the microplate and the filter was positioned. The cell suspension containing different concentrations of stimulants were placed on the filter (30 μl) in a gradient fashion. After incubation, the lid was removed and the filter was gently wiped with a cell harvester and carefully flushed with media to remove any of the non-migrated cells. The filter was then carefully removed and the migrated cells were counted by light microscopy. Results are expressed as the mean value (±SD) of total migrated cells, in triplicate samples, and are taken from five experiments independent.
# Chemotactic responses were distinguished from chemokinetic responses by placing increasing concentrations of fMLF in the upper and lower chambers of the transwell plates (Table 1).
# There was no enhanced cell migration when higher concentrations of fMLF were present in the upper wells or with equal concentrations of fMLF in both the upper and lower wells, as would be seen with chemokinesis.
# Different concentrations of fMLF were placed in the upper and/or lower wells of the chemotaxis plate; platelets at 10^6 cells/ml were placed on the upper filter. After a 2-hour incubation, the non-migrated cells were removed and the cells that migrated across the filter were counted. The results are expressed as the mean value (±SD) of the migrated cells in at least six separate experiments (n=24). Grey shading indicates wells containing a greater concentration of fMLF in the lower well compared to the upper well. Platelet migration in transwells maintaining a gradient of fMLF between chambers were compared with wells containing equimolar concentrations of fMLF in both chambers (p<0.002, Student's t-test)
# [6] = molecular target: T1, N-formyl peptide receptors on human platelets; experiment: Confocal microscopy of fluorescein-conjugated peptide binding to human platelets; conditions: 10^−6 M peptide; thrombin-activated platelets
# Method: as §1
# Platelet-rich plasma was prepared as mentioned above. Washed platelets were activated with either 1 or 10 U thrombin (Sigma) for 10 min at 37° C. The platelets were washed two times and fixed with 4% paraformaldehyde for 20 min at 4° C. The platelets were then washed and permeablized with 100% methanol for 15 min at 4° C. […] The platelets were washed two times, spun onto cover slips, and mounted with ProLong® Antifade Kit (Molecular Probes). Confocal images were collected on a Leica TCS-NT/SP confocal microscope (Leica Microsystems, Exton, Pa.) using a 100-x oil emersion objective NA 1.4, zoom 2. Representative images from three independent experiments are shown (FIG. 2).
compound,measurement,setting,value
"CCCCCCCCCCCCCC(=O)O[C@@H]1[C@@H](C)[C@@]2(O)[C@@H](C=C(CO)C[C@]3(O)C(=O)C(C)=C[C@@H]23)[C@@H]2C(C)(C)[C@]12OC(C)=O [PMA, phorbol 12-myristate 13-acetate]",FPR and FPRL-1 mRNA expression after induced megakaryocyte differentiation,[1],transactivation of the genes encoding both the FPR and FPRL-1
"CN[C@@H]1C[C@H]2O[C@@](C)([C@@H]1OC)n1c3ccccc3c3c4c(c5c6ccccc6n2c5c31)C(=O)NC4 [STS, staurosporine]",platelet calcium flux response to thrombin after incubation with STS,[2]; platelets incubated with STS directly,capable of subsequent calcium flux responses to thrombin
same,apoptotic cells after treatment,[3],80%
For-[Nle]LF[Nle]YK [fNLFNYK-fl],binding of fluorescein-conjugated peptide to platelets by flow cytometry,[4],increased binding with increased thrombin activation
same,chemotaxis of thrombin-activated platelets toward peptide,[5],significantly more migration
same,binding of fluorescein-conjugated peptide to platelets by confocal microscopy,[6],upregulation of external N-formyl peptide binding with platelet activation
"MLF: the non formyl peptide, MLF",calcium signal,[2],failed to elicit a calcium signal
N-formyl-methionine-leucine-phenalanine [fMLF],calcium signal after pretreatment with thrombin,"[2]; pretreatment with thrombin (1 U), then fMLF stimulation",greater fluorescent signal
same,calcium signal,[2],induced a calcium signal
same,checkerboard analysis: chemotaxis versus chemokinesis,"[5]; fMLF in upper and/or lower wells, 2-hour incubation",directed migration and not chemokinesis
same,"platelet migration, mean value (±SD) of migrated cells","[5]; non-activated platelets, 10^−7 M fMLF (greatest response)",11.5±6.5
same,"platelet migration, mean value (±SD) of migrated cells","[5]; thrombin-activated platelets, 10^−6 M fMLF (greatest response)",27.2±12
"Nle-Leu-Phe-Nle-Tyr-Lys ([Nle]LF[Nle]YK-fluorescein) [NLFNYK-fl, fluorescein conjugated non-N-formylated peptide (New England Peptide)]",binding of fluorescein-conjugated peptide to platelets by flow cytometry,[4],non-specific and did not increase with thrombin activation
same,chemotaxis of thrombin-activated platelets toward peptide,[5],failed to induce significant chemotaxis
same,binding of fluorescein-conjugated peptide to platelets by confocal microscopy,[6],no binding
thrombin,calcium signal,[2],induced a calcium signal
